{"source": "patent US7935674B2", "about": "“Indole derivatives” (Mitsubishi Tanabe Pharma Corporation, priority 2005, dated 2011)", "key": {"[1]": {"target": "T1, human SGLT2 (Homo sapiens, UniProt P31639)", "T1 construct": "expressed in transfected cells; host or cells: CHOK1 (Chinese hamster ovary) cells, kept under Geneticin selection", "T1 sequence (P31639 1-672)": "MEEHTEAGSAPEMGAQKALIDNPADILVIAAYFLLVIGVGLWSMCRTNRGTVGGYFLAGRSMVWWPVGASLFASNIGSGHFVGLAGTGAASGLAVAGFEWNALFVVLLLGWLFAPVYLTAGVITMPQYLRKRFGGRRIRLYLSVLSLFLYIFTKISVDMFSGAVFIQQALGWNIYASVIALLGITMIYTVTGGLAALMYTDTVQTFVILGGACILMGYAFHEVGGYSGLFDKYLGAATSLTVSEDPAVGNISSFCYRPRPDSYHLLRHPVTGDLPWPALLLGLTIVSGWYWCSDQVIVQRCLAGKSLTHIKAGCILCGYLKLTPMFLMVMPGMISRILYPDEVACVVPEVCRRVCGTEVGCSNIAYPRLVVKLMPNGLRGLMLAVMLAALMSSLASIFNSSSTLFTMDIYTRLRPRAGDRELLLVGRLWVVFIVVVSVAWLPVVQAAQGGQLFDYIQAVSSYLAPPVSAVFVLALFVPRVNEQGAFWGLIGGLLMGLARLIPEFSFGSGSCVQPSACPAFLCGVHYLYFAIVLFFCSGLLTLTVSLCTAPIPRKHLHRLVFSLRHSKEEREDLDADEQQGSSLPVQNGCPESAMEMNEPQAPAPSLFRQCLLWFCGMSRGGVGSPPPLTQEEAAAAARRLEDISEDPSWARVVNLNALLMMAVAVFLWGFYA", "test": "Assay for SGLT2 inhibition (14C-AMG uptake in CHOK1 cells expressing human SGLT2)", "format": "cell-based", "settings": "CHOK1 cells expressing human SGLT2; 14C-AMG uptake, 0.5 mM, 2 hours at 37° C.; read-out: IC50", "description": "1. Assay for SGLT2 Inhibition\nCompounds described in the above examples were used for the SGLT2 inhibition assay.\nCHOK1 cells expressing human SGLT2 were seeded in 24-well plates at a density of 400,000 cells/well in F-12 nutrient mixture (Ham's F-12) containing 10% fetal bovine serum, 400 μg/ml Geneticin, 50 units/ml sodium penicillin G (Gibco-BRL) and 50 μg/ml streptomycin sulfate. After 2 days of culture at 37° C. in a humidified atmosphere containing 5% CO2, cells were washed once with the assay buffer (137 mM NaCl, 5 mM KCl, 1 mM CaCl2, 1 mM MgCl2, 50 mM Hepes, and 20 mM Tris, pH 7.4) and incubated with 250 μl of the buffer containing test compounds for 10 min at 37° C. Test compounds were dissolved in DMSO. The final concentration of DMSO was 0.5%. The transport reaction was initiated by addition of 50 μl [^14C]-methyl-α-D-glucopyranoside (^14C-AMG) solution (final concentration, 0.5 mM). After incubation for 2 hours at 37° C., the uptake was stopped by aspiration of the incubation mixture, the cells were washed three times with ice-cold PBS. Then, cells were solubilized with 0.3 N NaOH and aliquots were taken for determination of radioactivity by a liquid scintillation counter. Nonspecific AMG uptake was defined as that which occurred in the presence of 100 μM of phlorizin, a specific inhibitor of sodium-dependent glucose cotransporter. Specific uptake was normalized for the protein concentrations measured by the method of Bradford. The 50% inhibitory concentration (IC50) values were calculated from dose-response curves by least square method."}}}
{"compound": "Cc1cccc2c1c(Cc1ccc(-c3ccccn3)s1)cn2[C@@H]1O[C@H](CO)[C@@H](O)[C@H](O)[C@H]1O", "note": "[Example 52, 4-Methyl-3-(5-(2-pyridyl)thiophen-2-yl-methyl)-1-(β-D-gluco-pyranosyl)indole]", "values": [{"measurement": "IC50", "setting": "[1]", "result": 2.8, "unit": "nM"}, {"measurement": "melting point", "result": "195 to 200", "unit": "°C"}]}
